US7105554B2, “Benzylidene thiazolidinediones and their use as antimycotic agents” (priority 2000, dated 2006)
pIC50: −log10 of the molar value.

Columns and labels:
[1] = test system: Candida albicans (strain SC5314); test: G418 Sensitivity Assay; format: cell-based; conditions: concentration giving 50% reduction in cell growth relative to culture with G418 alone, strain SC5314, overnight at 37° C., OD600 nm, 1% DMSO
Description: This assay is based upon the observed increased sensitivity of the pmt1−/− Candida strain to Geneticin (G418) (6). 100 μl of a 0.1 OD600 nm culture of Candida albicans (strain SC5314) is placed into a 96 well plate in the presence or absence of varying concentrations of test compound. The compounds are initially dissolved in DMSO and added to the cultures at a final DMSO concentration of 1%. G418 is added to a final concentration of 100 [2 g/ml. In the absence of PMT1 inhibition, this concentration of G418 has no effect on the proliferation of the organism. The cultures are grown overnight at 37° C. and cell density is then estimated by an OD600 nm measurement. The effect of the test compound is calculated as the concentration that gives a 50% reduction in cell growth relative to the culture with G418 alone.

[2] = biological target: T1, Candida albicans PMT-1 enzyme (Candida albicans, UniProt O74189); test: PMT-1 Assay; format: biochemical; conditions: transfer of [3H]-mannose from dolicholphosphomannose to peptide DYATAV, Candida albicans membrane protein, 60 minutes at 25° C., pH 8.0; read-out: PMT-1 Inhibition (IC50, microM)
T1 construct: 25 μg of Candida albicans membrane protein; endogenous in cells
T1 sequence (O74189 whole entry): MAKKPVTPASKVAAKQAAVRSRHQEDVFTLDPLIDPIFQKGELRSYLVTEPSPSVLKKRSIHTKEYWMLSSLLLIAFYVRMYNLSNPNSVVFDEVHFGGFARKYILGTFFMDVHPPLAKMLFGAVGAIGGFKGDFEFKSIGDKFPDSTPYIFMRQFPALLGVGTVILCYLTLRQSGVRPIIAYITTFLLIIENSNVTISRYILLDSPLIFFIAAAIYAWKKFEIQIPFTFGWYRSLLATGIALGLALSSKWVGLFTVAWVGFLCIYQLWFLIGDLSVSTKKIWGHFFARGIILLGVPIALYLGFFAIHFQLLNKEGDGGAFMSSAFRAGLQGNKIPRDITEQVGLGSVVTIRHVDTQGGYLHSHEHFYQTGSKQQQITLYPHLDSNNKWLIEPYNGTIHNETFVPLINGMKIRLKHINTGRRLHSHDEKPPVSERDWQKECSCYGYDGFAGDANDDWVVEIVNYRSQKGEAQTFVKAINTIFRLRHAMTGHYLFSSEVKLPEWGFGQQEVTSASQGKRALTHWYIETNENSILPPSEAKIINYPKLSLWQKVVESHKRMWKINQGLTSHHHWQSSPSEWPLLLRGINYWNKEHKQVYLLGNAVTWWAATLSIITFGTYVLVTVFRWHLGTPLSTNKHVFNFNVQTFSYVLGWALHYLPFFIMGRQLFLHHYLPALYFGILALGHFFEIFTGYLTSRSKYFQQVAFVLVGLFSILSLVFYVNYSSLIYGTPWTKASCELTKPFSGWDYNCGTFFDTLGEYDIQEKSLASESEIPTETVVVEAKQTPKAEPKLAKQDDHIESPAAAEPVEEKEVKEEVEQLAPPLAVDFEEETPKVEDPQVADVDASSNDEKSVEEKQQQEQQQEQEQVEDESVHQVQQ
T1 sequence (Q5ADM9 whole entry, further chain): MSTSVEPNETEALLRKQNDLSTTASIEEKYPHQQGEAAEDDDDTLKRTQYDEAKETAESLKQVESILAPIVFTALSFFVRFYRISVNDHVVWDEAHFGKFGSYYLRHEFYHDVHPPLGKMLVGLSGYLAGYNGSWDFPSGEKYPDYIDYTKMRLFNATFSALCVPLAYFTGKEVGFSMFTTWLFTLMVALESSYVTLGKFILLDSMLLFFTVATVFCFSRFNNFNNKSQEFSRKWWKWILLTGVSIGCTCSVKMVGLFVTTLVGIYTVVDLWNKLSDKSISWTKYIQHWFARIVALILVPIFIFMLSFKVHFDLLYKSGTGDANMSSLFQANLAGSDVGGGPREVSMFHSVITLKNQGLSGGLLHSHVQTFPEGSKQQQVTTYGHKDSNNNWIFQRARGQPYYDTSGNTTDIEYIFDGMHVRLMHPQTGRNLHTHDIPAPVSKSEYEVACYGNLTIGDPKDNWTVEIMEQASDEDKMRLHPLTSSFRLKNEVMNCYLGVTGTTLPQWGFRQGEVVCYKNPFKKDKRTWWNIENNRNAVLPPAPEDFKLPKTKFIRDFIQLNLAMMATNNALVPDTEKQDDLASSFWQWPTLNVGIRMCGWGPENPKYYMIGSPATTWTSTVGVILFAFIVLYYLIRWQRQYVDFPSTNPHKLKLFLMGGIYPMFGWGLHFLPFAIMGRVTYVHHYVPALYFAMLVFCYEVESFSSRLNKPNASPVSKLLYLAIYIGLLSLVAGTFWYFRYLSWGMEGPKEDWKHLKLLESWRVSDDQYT
Description: The assay method is based upon the transfer of a radiolabelled mannose moiety from dolicholphosphomannose onto a threonine hydroxyl residue in a short peptide, as catalysed by the Candida albicans PMT-1 enzyme. Dolicholphospho-[^3H]-mannose is synthesised enzymatically from GDP-[^3H]-mannose and purified by chloroform:methanol extraction.
100000 Dpm of the generated substrate is incubated with 400 μg phosphatidylcholine, 25 μg of peptide (DYATAV) and 25 μg of Candida albicans membrane protein in a final volume of 50 μl in 100 mM Tris/1 mM MgCl2 buffer, pH 8.0. After 60 minutes at 25° C., the reaction is stopped with 50 μl of methanol. The unreacted radiolabel is removed by the addition of 150 μl of 0.4 g/ml octadecyl-functionalised silica (C18) in methanol. The C18 material is removed by centrifugation and the activity transferred to the peptide is counted in the supernatant.

melting point [°C]	SMILES	pIC50 [1]	pIC50 [2]
235 to 238	O=C(O)CN1C(=O)/C(=C/c2ccc(OCc3ccccc3)c(OCc3ccccc3)c2)SC1=S [Example 29, 5-[[3,4-bis(phenylmethoxy)phenyl]methylene]-4-oxo-2-thioxo-3-thiazolidineacetic acid]		
	O=C(O)CN1C(=O)/C(=C/c2ccc(OCc3cccc(C(F)(F)F)c3)c(OCc3ccccc3)c2)SC1=S [Example 39, 5-[[3-(Phenylmethoxy)-4-[(3-trifluoromethylphenyl)methoxy]phenyl]-methylene]-4-oxo-2-thioxo-3-thiazolidineacetic acid]	6.19	5.70
	O=C(O)CN1C(=O)/C(=C/c2ccc(OCc3ccc(OC(F)(F)F)cc3)c(OCc3ccccc3)c2)SC1=S [Example 42, 5-[[3-(Phenylmethoxy)-4-[(4-trifluoromethoxyphenyl)methoxy]-phenyl]-methylene]-4-oxo-2-thioxo-3-thiazolidineacetic acid]	6.46	6.00
	O=C(O)CN1C(=O)/C(=C/c2ccc(OCc3ccc(Cl)cc3)c(OCc3ccccc3)c2)SC1=S [Example 44, 5-[[4-[(4-Chlorophenyl)methoxy] 3-(phenylmethoxy)phenyl]-methylene]-4-oxo-2-thioxo-3-thiazolidineacetic acid]	6.22	6.00
73 to 80	C[C@H](COc1ccc(/C=C2\SC(=S)N(CC(=O)O)C2=O)cc1O[C@@H](c1ccccc1)C(F)(F)F)c1ccccc1 [Example 60, 5-[[3-[(S)-1-Phenyl-2,2,2-trifluoroethoxy]-4-[(S)-2-phenylpropoxy]-phenyl]methylene]-4-oxo-2-thioxo-3-thiazolidineacetic acid]		
